biological target: T1, Acrosin (Homo sapiens, UniProt P10323); assay: Inhibition of human acrosin using N-alpha-benzoyl-L-arginine p-nitroanilide as substrate after 3 hrs by spectrophotometry
T1 sequence (P10323 20-42 limits assumed): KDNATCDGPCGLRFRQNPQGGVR
T1 sequence (P10323 43-343 limits assumed): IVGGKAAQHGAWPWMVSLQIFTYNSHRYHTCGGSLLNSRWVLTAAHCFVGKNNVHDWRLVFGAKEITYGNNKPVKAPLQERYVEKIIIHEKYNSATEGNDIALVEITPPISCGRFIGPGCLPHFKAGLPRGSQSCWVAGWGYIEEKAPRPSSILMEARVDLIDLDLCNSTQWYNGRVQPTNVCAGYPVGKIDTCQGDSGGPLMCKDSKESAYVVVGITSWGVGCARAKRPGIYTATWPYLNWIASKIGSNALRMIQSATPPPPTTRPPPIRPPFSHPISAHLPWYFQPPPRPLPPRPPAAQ

IC50	Compound
7.8 µM	CC(C)(C)c1ccc(NC(=O)c2cc(-c3ccc(NC(=N)N)cc3)on2)cc1
27.9 µM	N=C(N)Nc1ccc(-c2cc(C(=O)Nc3ccccc3Br)no2)cc1
23.9 µM	N#Cc1ccc(NC(=O)c2cc(-c3ccc(NC(=N)N)cc3)on2)cc1
2.3 µM	COc1ccc(OC)c(NC(=O)c2cc(-c3ccc(NC(=N)N)cc3)on2)c1
12.1 µM	Cc1cc(C)cc(NC(=O)c2cc(-c3ccc(NC(=N)N)cc3)on2)c1
29.9 µM	N=C(N)Nc1ccc(-c2cc(C(=O)Nc3cccc4ccccc34)no2)cc1
5.7 µM	Cc1cccc(C)c1NC(=O)c1cc(-c2ccc(NC(=N)N)cc2)on1
14.4 µM	Cc1ccccc1NC(=O)c1cc(-c2ccc(NC(=N)N)cc2)on1
6.6 µM	COc1cccc(NC(=O)c2cc(-c3ccc(NC(=N)N)cc3)on2)c1
140 µM	CCOC(=O)c1cc(-c2ccc(NC(=O)c3ccc(F)cc3)cc2)on1
8.4 µM	COc1ccccc1NC(=O)c1cc(-c2ccc(NC(=N)N)cc2)on1
9.4 µM	Cc1cccc(NC(=O)c2cc(-c3ccc(NC(=N)N)cc3)on2)c1
6.4 µM	CCOc1ccc(NC(=O)c2cc(-c3ccc(NC(=N)N)cc3)on2)cc1
9.3 µM	CCOC(=O)c1ccc(NC(=O)c2cc(-c3ccc(NC(=N)N)cc3)on2)cc1
25.4 µM	N=C(N)Nc1ccc(-c2cc(C(=O)Nc3cccc(Cl)c3)no2)cc1
14.4 µM	N=C(N)Nc1ccc(-c2cc(C(=O)Nc3cccc(Br)c3)no2)cc1
1.4 µM	COc1ccc(NC(=O)c2cc(-c3ccc(NC(=N)N)cc3)on2)c(OC)c1
20.3 µM	N=C(N)Nc1ccc(-c2cc(C(=O)Nc3ccc(C(F)(F)F)cc3)no2)cc1
21.4 µM	Cc1ccnc(NC(=O)c2cc(-c3ccc(NC(=N)N)cc3)on2)c1
26.8 µM	N=C(N)Nc1ccc(-c2cc(C(=O)Nc3ccc(Cl)cc3)no2)cc1
380 µM	CCOC(=O)c1cc(-c2ccc(NC(=O)c3ccc(Cl)cc3)cc2)on1
24.6 µM	N=C(N)Nc1ccc(-c2cc(C(=O)Nc3ccccc3)no2)cc1
20.5 µM	N=C(N)Nc1ccc(-c2cc(C(=O)Nc3ccc(F)cc3)no2)cc1
240 µM	CCOC(=O)c1cc(-c2ccc(NC(=O)c3ccc(Cl)c(Cl)c3)cc2)on1
11.5 µM	Cc1cccc(NC(=O)c2cc(-c3ccc(NC(=N)N)cc3)on2)c1C
60 µM	CCOC(=O)c1cc(-c2ccc(NC(=O)c3ccccc3Cl)cc2)on1
460 µM	CCOC(=O)c1cc(-c2ccc(NC(=O)c3ccccc3)cc2)on1
10.1 µM	Cc1ccc(NC(=O)c2cc(-c3ccc(NC(=N)N)cc3)on2)cc1

Compound	IC50
CC(CO)NC(=O)c1cc(-c2ccc(NC(=N)N)cc2)on1 (configuration not stated)	> 100 µM
CC(C)NC(=O)c1cc(-c2ccc(NC(=N)N)cc2)on1	> 100 µM

system: not listed separately; assay: Inhibition of pig trypsin; design: species or system Sus scrofa

IC50	Compound
4200 µM	COc1ccc(NC(=O)c2cc(-c3ccc(NC(=N)N)cc3)on2)c(OC)c1

biological target: T1, Acrosin; assay: Ratio of ISO-1 IC50 to compound IC50 for human acrosin using N-alpha-benzoyl-L-arginine p-nitroanilide as substrate after 3 hrs by spectrophotometry

Ratio IC50	Compound
6	CCOC(=O)c1cc(-c2ccc(NC(=O)c3ccccc3Cl)cc2)on1
